Experimental data from ChEMBL document CHEMBL5126505, “Adenosine receptor antagonists: Recent advances and therapeutic perspective” (Eur J Med Chem, 2022).
In brackets after ≈: the same amount, converted by molar mass.

Tests used:
Adenosine receptor A2a [1] = target: T1, Adenosine receptor A2a (Homo sapiens, UniProt P29274); assay: Binding affinity to human adenosine A2A receptor measured by radioligand-based affinity assay
Adenosine receptor A3 [2] = target: T2, Adenosine receptor A3 (Homo sapiens, UniProt P0DMS8); assay: biochemical
T2 sequence (P0DMS8 whole entry): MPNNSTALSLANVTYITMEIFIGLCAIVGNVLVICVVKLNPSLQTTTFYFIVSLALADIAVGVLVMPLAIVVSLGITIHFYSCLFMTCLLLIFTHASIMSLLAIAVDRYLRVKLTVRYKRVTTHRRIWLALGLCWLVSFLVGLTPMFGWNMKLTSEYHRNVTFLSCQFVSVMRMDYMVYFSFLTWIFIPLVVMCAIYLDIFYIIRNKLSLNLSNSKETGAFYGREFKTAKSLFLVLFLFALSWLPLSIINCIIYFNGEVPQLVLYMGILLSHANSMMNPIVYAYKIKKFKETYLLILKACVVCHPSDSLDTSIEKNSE
Description: Displacement of [3H]HEMADO from human adenosine A3 receptor expressed in CHO cells measured by radioligand competition assay

Adenosine receptor A2a [3] = target: T1, Adenosine receptor A2a
Adenosine receptor A3 [4] = target: T2, Adenosine receptor A3
Description: Binding affinity to human adenosine A3A receptor

Adenosine receptor A3 [5] = target: T2, Adenosine receptor A3; remark: listed apart in the source
Description: Binding affinity to human adenosine A3A receptor measured by radioligand-based affinity assay

Adenosine receptor A2a [6] = target: T1, Adenosine receptor A2a; remark: listed apart in the source
in vivo = conditions: plasma
Description: Cmax in plasma (unknown origin)

Adenosine receptor A1 [7] = target: T3, Adenosine receptor A1 (Homo sapiens, UniProt P30542)
T3 sequence (P30542 whole entry): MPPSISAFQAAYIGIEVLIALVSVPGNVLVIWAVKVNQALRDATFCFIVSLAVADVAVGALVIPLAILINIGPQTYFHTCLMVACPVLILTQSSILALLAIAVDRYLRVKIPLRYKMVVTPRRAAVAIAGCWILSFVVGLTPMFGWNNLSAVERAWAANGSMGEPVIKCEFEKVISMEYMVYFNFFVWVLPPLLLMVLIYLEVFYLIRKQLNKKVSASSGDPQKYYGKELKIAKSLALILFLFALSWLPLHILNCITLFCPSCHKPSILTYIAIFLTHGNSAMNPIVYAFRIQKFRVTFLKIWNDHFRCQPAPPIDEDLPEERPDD
Description: Binding affinity to human adenosine A1 receptor

Adenosine receptor A2a [8] = target: T1, Adenosine receptor A2a; remark: listed apart in the source
Description: Antagonist activity at human adenosine A2A receptor expressed in CHO cells assessed as inhibition of NECA-induced cAMP production measured by scintillation counter assay

Adenosine receptor A1 [9] = target: T3, Adenosine receptor A1; remark: listed apart in the source
Description: Binding affinity to human adenosine A1A receptor measured by radioligand-based affinity assay

physchem [10] = conditions: simulated intestinal fluid
Description: Solubility of the compound in simulated intestinal fluid

physchem [11] = conditions: phosphate buffered saline
Description: Solubility of the compound in phosphate buffered saline

physchem [12] = conditions: simulated gastric fluid
Description: Solubility of the compound in simulated gastric fluid

physchem [13] = conditions: water
Description: Solubility of the compound in water

Adenosine receptor A2a [14] = target: T1, Adenosine receptor A2a; remark: listed apart in the source
Description: Antagonist activity at adenosine A2A receptor (unknown origin)

Adenosine receptor A2a [15] = target: T1, Adenosine receptor A2a; assay: Antagonist activity at human adenosine A2A receptor expressed in CHO cells assessed as inhibition of NECA-induced cAMP production; format: functional, cell-based
Adenosine receptor A1 [16] = target: T3, Adenosine receptor A1; remark: listed apart in the source
Description: Antagonist activity at human adenosine A1A receptor

Adenosine receptor A2b = target: T4, Adenosine receptor A2b (Homo sapiens, UniProt P29275)
T4 sequence (P29275 whole entry): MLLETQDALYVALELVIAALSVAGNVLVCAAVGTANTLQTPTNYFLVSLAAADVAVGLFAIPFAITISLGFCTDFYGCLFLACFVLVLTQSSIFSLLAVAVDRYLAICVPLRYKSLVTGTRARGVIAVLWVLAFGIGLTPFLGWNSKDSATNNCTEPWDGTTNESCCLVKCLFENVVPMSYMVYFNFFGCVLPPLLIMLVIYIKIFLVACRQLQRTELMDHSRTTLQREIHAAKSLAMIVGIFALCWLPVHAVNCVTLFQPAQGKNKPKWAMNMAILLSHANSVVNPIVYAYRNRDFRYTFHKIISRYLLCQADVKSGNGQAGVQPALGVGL
Description: Binding affinity to human adenosine A2B receptor

T1 sequence (P29274 whole entry): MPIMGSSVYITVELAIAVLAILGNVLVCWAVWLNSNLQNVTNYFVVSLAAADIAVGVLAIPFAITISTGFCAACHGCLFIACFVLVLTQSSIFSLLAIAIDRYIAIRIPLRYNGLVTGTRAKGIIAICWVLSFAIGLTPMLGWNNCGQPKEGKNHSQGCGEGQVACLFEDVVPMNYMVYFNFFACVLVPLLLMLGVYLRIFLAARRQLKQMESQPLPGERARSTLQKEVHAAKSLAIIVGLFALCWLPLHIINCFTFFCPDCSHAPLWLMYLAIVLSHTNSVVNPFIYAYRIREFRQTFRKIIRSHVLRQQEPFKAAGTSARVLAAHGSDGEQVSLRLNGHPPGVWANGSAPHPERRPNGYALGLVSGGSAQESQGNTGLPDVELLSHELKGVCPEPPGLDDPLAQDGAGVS

Compound: S=c1sc2c(ncn3nc(-c4ccco4)nc23)n1CCc1ccccc1
- Ki (Adenosine receptor A2a [1]): 6.3 nM

Compound: COc1ccc(-c2cc3cccc(OC)c3oc2=O)cc1
- Ki (Adenosine receptor A3 [2]): 5320 nM

Compound: CCOc1cccc2cc(-c3ccccc3)c(=O)oc12
- Ki (Adenosine receptor A3 [2]): 3930 nM

Compound: CCOc1cccc2cc(-c3ccc(OC)cc3)c(=O)oc12
- Ki (Adenosine receptor A3 [2]): 258 nM

Compound: Cc1ccc(-c2cc3cc(C)ccc3oc2=O)cc1
- Ki (Adenosine receptor A3 [2]): 2680 nM

Compound: CCN1CCCC(Nc2cc(C)nc(NC(=N)Nc3ccc(Cl)c(Cl)c3)n2)C1 (centres undefined)
- IC50 (Adenosine receptor A2a [3]): 546 nM

Compound: COc1ccc(OC)c(-c2cc(NC(C)=O)nc(-c3cc(OC)ccc3OC)n2)c1
- Ki (Adenosine receptor A3 [4]): 7 nM

Compound: COc1ccc(-c2cc(NC(C)=O)nc(-c3ccc(OC)c(OC)c3)n2)cc1OC
- Ki (Adenosine receptor A3 [4]): 7 nM

Compound: Cc1nc(NC(=O)c2ccccc2)c2nn(-c3ccccc3)cc2n1
- Ki (Adenosine receptor A3 [5]): 24 nM

Compound: COc1ccccc1Cc1cc2c(N)nc(-c3ccc(C)o3)nc2s1
- Ki (Adenosine receptor A2a [6]): 2.9 nM

Compound: Cc1ccc(-c2nc(N)c3cc(Cc4ccccc4Cl)sc3n2)o1
- Ki (Adenosine receptor A2a [6]): 3.7 nM

Compound: Cc1ccc(-c2nc(N)c3cc(Cc4ccccc4)sc3n2)o1
- Ki (Adenosine receptor A2a [6]): 298 nM
- Cmax (in vivo): 5 µM
- Ki (Adenosine receptor A1 [7]): 11.1 nM

Compound: CC(C)n1cc2c(Cl)nc(N(C(=O)c3ccccc3)C(=O)c3ccccc3)nc2n1
- Ki (Adenosine receptor A3 [5]): 900 nM

Compound: Nc1nc(CCCc2ccccc2)nc2cn(-c3ccccc3)nc12
- Ki (Adenosine receptor A2a [8]): 423 nM

Compound: CCOC(=O)c1c(NC(=O)c2sc(Nc3ccc(C)cc3)nc2-c2ccc(C)cc2)sc2c1CCCC2
- Ki (Adenosine receptor A3 [2]): 2200 nM

Compound: CCOC(=O)c1c(NC(=O)c2sc(Nc3ccc(OC)cc3)nc2-c2ccc(C)cc2)sc2c1CCCC2
- Ki (Adenosine receptor A3 [2]): 5200 nM

Compound: CCn1c(=O)c2c(nc(CCCc3ccccc3)n2CC)n(CC)c1=O
- Ki (Adenosine receptor A1 [7]): 164 nM

Compound: CCn1c(=O)c2c(nc(COc3ccccc3)n2C)n(CC)c1=O
- Ki (Adenosine receptor A1 [7]): 874 nM

Compound: Cc1ccc(-c2cc(-c3cccc(C(=O)N4CCCCC4)c3)nc(N)n2)o1
- Ki (Adenosine receptor A2a [6]): 9.54 nM
- Ki (Adenosine receptor A1 [7]): 6.34 nM

Compound: Nc1nc(-c2ccccc2)cc(-c2cccc(OC(=O)N3CCCCC3)c2)n1
- Ki (Adenosine receptor A1 [9]): 3540 nM
- Ki (Adenosine receptor A2a [1]): 1950 nM

Compound: CN1CCN(C(=O)Oc2cccc(-c3cc(-c4ccccc4)nc(N)n3)c2)CC1
- Ki (Adenosine receptor A1 [9]): 3540 nM
- Ki (Adenosine receptor A2a [1]): 1950 nM

Compound: Nc1nc(-c2ccccc2)cc(-c2cccc(OC(=O)N3CCOCC3)c2)n1
- Ki (Adenosine receptor A1 [9]): 3540 nM
- Ki (Adenosine receptor A2a [1]): 1950 nM

Compound: OC[C@@H]1CCCN1c1ncnc2sc(Nc3cccc(Br)c3)nc12
- solubility (physchem [10]): 3500 µg/mL (≈ 8.61 mM)
- solubility (physchem [11]): 4800 µg/mL (≈ 11.8 mM)
- solubility (physchem [12]): 3500 µg/mL (≈ 8.61 mM)
- solubility (physchem [13]): 4300 µg/mL (≈ 10.6 mM)

Compound: CCn1c(=O)c2c(nc(COc3ccc(Br)cc3)n2C)n(CC)c1=O
- Ki (Adenosine receptor A1 [7]): 264 nM

Compound: Oc1ccc(-c2cnc(N[C@H]3CC[C@H](O)CC3)nc2-c2ccccc2)cc1Cl
- Ki (Adenosine receptor A2a [3]): 7.7 nM

Compound: CCn1c(=O)c2c(nc(COc3ccc(OC)cc3)n2C)n(CC)c1=O
- Ki (Adenosine receptor A2a [6]): 237 nM

Compound: CCCn1c(=O)[nH]c2nc(-c3cnn(Cc4cccc(C(F)(F)F)c4)c3)[nH]c2c1=O
- Ki (Adenosine receptor A2a [14]): 6 nM

Compound: CCOc1ccc(-c2cn3c(=O)n(-c4ccccc4)nc3c(N)n2)cc1
- IC50 (Adenosine receptor A2a [15]): > 30000 nM

Compound: COc1ccc2oc(=O)c(C(=O)Nc3cccc(O)c3)cc2c1
- Ki (Adenosine receptor A3 [4]): 22000 nM
- Ki (Adenosine receptor A1 [7]): 41000 nM

Compound: CCCn1c(Oc2cccc(C(F)(F)F)c2)nc2nc(C3CCCC3)[nH]c2c1=O
- Ki (Adenosine receptor A1 [16]): 2 nM

Compound: CCCn1c(OC2CCOC2)nc2nc(C3CCCC3)[nH]c2c1=O (centres undefined)
- Ki (Adenosine receptor A1 [7]): 57 nM

Compound: Cc1cccc(NC(=O)c2cc3ccccc3oc2=O)c1
- Ki (Adenosine receptor A3 [4]): 2400 nM

Compound: O=c1[nH]c(N2CCCC2)nc2nccc(-c3ccc(Cl)cc3)c12
- IC50 (Adenosine receptor A1 [9]): 1480 nM

Compound: CC1=C(C(=O)OC(C)C(F)(F)F)C(c2ccco2)n2c(nc3ccccc32)N1 (centres undefined)
- Ki (Adenosine receptor A2b): 29.1 nM
